Experiments:
MNK1 = target: T1, MNK1 (Homo sapiens, UniProt Q9BUB5); experiment: MNK inhibition assay (Z-Lyte kinase assay, Ser/Thr 7 peptide); type: biochemical; settings: for IC50: recombinant GST-MNK1, 3 hours at 31° C.
T1 construct: purchased Life Technologies or Carna Biosciences PV6023 or 02-145; host or cells: baculovirus infected insect cells
Description: For the measurement of the activity of the MNK1 kinase the Z-Lyte kinase assay system was used. The kinase activity of MNK1 can be quantified with the Z-Lyte kinase assay kit Ser/Thr 7 peptide (Life Technologies PV3180). The kit was utilized according to the instructions of the provider. A recombinant GST-MNK1 fusion protein produced in and purified from baculovirus infected insect cells was used as enzyme source (GST-MNK1 Life Technologies PV6023 or Carna Biosciences 02-145). It was verified that both sources of the MNK1 enzyme gave similar IC50 values with several compounds. The MNK1 enzyme assay was performed in 384 well round bottom black microtiter plates (Corning 3676). The kinase reaction was performed for 3 hours at 31° C. As instructed by the provider of the kit the amount of enzyme was chosen such that ˜30% of the substrate peptide was phosphorylated in control wells containing buffer only. The MNK1 inhibiting activity of compounds was tested by adding the compounds to the kinase reaction at a concentration of 10000, 5000, 2000, 1000, 500, 200, 100, 50 nM. Compounds with strong MNK1 inhibition were tested at 20, 10, 5, 2, 1 and 0.5 nM in addition. Each compound concentration was tested at least in duplicate. The % phosphorylation of the substrate peptide at each compound concentration was calculated as described in the assay manual. The fluorescent signals were recordes on Biotek Cytation 3 microplate reader. The IC50, the concentration that reduced substrate phosphorylation by 50% if compared to buffer only wells, was calculated with the Grafit 6 software (Erythacus software).

[1] = tested on: human pancreatic cancer cell line MiaPaCa2 (ATCC CRL-1420); experiment: Cell growth assay (CellTiterGlo, 72 hours); type: cell-based; settings: for IC50: MIA PaCa-2, MiaPaCa2 cells, 72 hours, read-out: IC50 MiaPaCa
Protocol: The inhibition of cell growth by the compounds was tested by exposing the human pancreatic cancer cell line MiaPaCa2 (ATCC CRL-1420) to the compounds. The assay was performed in 384 well clear bottom white microtiter plates (Greiner #781098). Each well was seeded with 10^3 cells in 20 μl of Dulbecco's modified Eagle's medium (Sigma D6796) supplied with 10% fetal calf scrum (Sigma F7524), 2.5% horse serum (Sigma H0146), 1% Penicillin-Streptomycin (Sigma P0781), 1% MEM nonessential amino acid solution 100× (Sigma M71459) and 1% 200 mM L-Glutamine (Sigma G7513) culture medium. After overnight incubation at 37° C. in 5% CO2 the compounds were added in the following concentrations: 100, 50, 20, 10, 5, 2, 1, 0.5, 0.2 and 0.1 μM. Each compound concentration was tested in quadruplicate. The incubation was then continued for 72 hours. After 72 hours the growth of the cells was assessed by the addition of the CellTiterGlo reagent (Promega G9242) as instructed by the provider. The luminescent signal was recorded on a SpectraMax M2 microplate reader. The signal obtained in wells containing cells cultivated in the absence of compound was set to 100% growth after subtracting the signal obtained in medium only wells. The % growth in each well was calculated by subtracting the medium only value and dividing through the 100% growth value. The IC50 for cell growth, the concentration of compound at which cell growth was reduced to 50%, was calculated with the GraFit6 software (Erythacus software).

[2] = read-out: Inhibition of MNK1 activity at indicated concentration

T1 sequence (Q9BUB5 whole entry): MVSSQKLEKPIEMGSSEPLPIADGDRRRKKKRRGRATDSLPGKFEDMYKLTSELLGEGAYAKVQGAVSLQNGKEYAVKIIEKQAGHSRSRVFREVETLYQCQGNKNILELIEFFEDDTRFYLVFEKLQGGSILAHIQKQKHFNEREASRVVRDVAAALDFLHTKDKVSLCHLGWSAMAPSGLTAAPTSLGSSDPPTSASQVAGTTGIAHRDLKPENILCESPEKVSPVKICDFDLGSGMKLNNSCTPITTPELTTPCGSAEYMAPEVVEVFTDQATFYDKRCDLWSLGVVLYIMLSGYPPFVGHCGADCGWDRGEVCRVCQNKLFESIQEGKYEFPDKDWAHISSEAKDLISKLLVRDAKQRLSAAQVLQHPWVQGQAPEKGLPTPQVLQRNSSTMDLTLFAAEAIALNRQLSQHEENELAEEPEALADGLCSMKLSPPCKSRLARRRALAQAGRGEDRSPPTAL

Structure (SMILES) | IC50 (MNK1) | IC50 [1] | inhibition at 10 µM (MNK1; at 10 μM, read-out: Inhibition of MNK1 activity at indicated concentration) | inhibition at 1 µM (MNK1; [2]) | inhibition at 100 µM ([1]; MIA PaCa-2, at 100 μM, read-out: Inhibition of MiaPaCa growth at indicated concentration)
NC1CCN(Cc2ccc3cncc(-c4nc5ccccc5o4)c3c2)CC1 [Example 228] | 0.483 µM | 4.98 µM |  |  | 
NC1CCN(Cc2cc(Cl)c3cncc(-c4ccc(Cl)cc4)c3c2)CC1 [Example 237] | 0.426 µM | 7.8 µM |  |  | 
COc1cc(CN2CCC(N)CC2)cc2c(-c3cccs3)cnc(N)c12 [Example 298] | 0.282 µM | 3.58 µM |  |  | 
NCCNc1ccc2cncc(-c3cc4ccccc4o3)c2c1 [Example 100, N′-[4-(Benzofuran-2-yl)-6-isoquinolyl]ethane-1,2-diamine] |  | 4.01 µM | 51% |  | 
NC1CCN(Cc2ccc3cncc(-c4ccc(Cl)cc4Cl)c3c2)CC1 [Example 197] | 1.39 µM | 9.86 µM |  |  | 
N[C@@H]1CCN(Cc2ccc3cncc(-c4cc5ccccc5o4)c3c2)C[C@H]1O [Example 268, (3R,4R/3S,4S)-4-Amino-1-[[4-(benzofuran-2-yl)-6-isoquinolyl]methyl]piperidin-3-ol] | 0.053 µM | 5.33 µM |  |  | 
c1ccc2oc(-c3cncc4ccc(CNc5ccncc5)cc34)cc2c1 [Example 61] | 0.003 µM | 5.25 µM |  |  | 
N[C@@H]1CCC[C@@H](Nc2ccc3cncc(-c4cc5ccccc5o4)c3c2)C1 [Example 291] | 0.638 µM | 4.75 µM |  |  | 
Nc1ncc(-c2ccccc2)c2cc(CN3CCC(N)CC3)ccc12 [Example 92] | 0.577 µM | 7.2 µM |  |  | 
O=C1CN(Cc2ccc3cncc(-c4ccc(O)cc4)c3c2)CCN1 [Example 22, 4-[[4-(4-Hydroxyphenyl)-6-isoquinolyl]methyl]piperazin-2-one] | 0.662 µM |  |  |  | 69%
NC1CCN(Cc2ccc3cncc(-c4cc5ccccc5s4)c3c2)CC1 [Example 170] | 0.361 µM | 2.6 µM |  |  | 
c1ccc2oc(-c3cncc4ccc(CNc5ccncn5)cc34)cc2c1 [Example 128] | 0.084 µM | 15.8 µM |  |  | 
COc1cc(CN2CCC(N)CC2)cc2c(-c3ccco3)cncc12 [Example 244] | 0.116 µM | 14.2 µM |  |  | 
Nc1cc2cncc(-c3cc4ccccc4o3)c2cc1CN1CCC(N)CC1 [Example 254, 6-[(4-Amino-1-piperidyl)methyl]-4-(benzofuran-2-yl)isoquinolin-7-amine] | 0.057 µM | 6.99 µM |  |  | 
NC1CCN(Cc2ccc3cncc(-c4ccc5cc[nH]c5c4)c3c2)CC1 [Example 169] | 0.247 µM | 10.3 µM |  |  | 
NC1CCN(Cc2ccc3cncc(-c4ccc(NC(=O)Nc5ccccc5)cc4)c3c2)CC1 [Example 31, 1-[4-[6-[(4-Amino-1-piperidyl)methyl]-4-isoquinolyl]phenyl]-3-phenyl-urea] | 0.484 µM | 2.19 µM |  |  | 
NC1CCN(Cc2ccc3cncc(-c4cc5ccccc5o4)c3c2)c2ccccc21 (centres unmarked) [Example 207] | 0.606 µM | 8.04 µM |  |  | 
NCCCOCc1ccc2cncc(-c3ccc(Cl)c(Cl)c3)c2c1 [Example 107] | 1.12 µM | 21 µM |  |  | 
N[C@H]1CC[C@H](Nc2ccc3c(=O)[nH]cc(-c4cc5ccccc5o4)c3c2)CC1 [Example 87, 6-[(4-Aminocyclohexyl)amino]-4-(benzofuran-2-yl)-2H-isoquinolin-1-one] | 1.98 µM | 4.47 µM |  |  | 
COc1cc(CN2CCC(N)CC2)cc2c(-c3cc4ccccc4o3)cncc12 [Example 242, 1-[[4-(Benzofuran-2-yl)-8-methoxy-6-isoquinolyl]methyl]piperidin-4-amine] | 0.164 µM | 2.74 µM |  |  | 
NCCCOCc1ccc2cncc(-c3ccc(O)cc3)c2c1 [Example 44, 4-[6-(3-Aminopropoxymethyl)-4-isoquinolyl]phenol] | 0.061 µM | 20.6 µM |  |  | 
NC1CCN(Cc2ccc3cncc(-c4cc5ccccc5o4)c3c2)CC1 [Example 1, 1-[[4-(Benzofuran-2-yl)-6-isoquinolyl]methyl]piperidin-4-amine] | 0.11 µM | 3.54 µM |  |  | 
COc1cc(O[C@H]2CC[C@H](N)CC2)cc2c(-c3ccccc3)cncc12 [Example 316] | 0.055 µM | 5.57 µM |  |  | 
N[C@H]1CC[C@H](Nc2cc(Cl)c3cncc(-c4cc5ccccc5o4)c3c2)CC1 [Example 142, N4-[4-(Benzofuran-2-yl)-8-chloro-6-isoquinolyl]cyclohexane-1,4-diamine] | 0.18 µM | 3.79 µM |  |  | 
N[C@H]1CC[C@H](Nc2ccc3cncc(-c4ccccc4)c3c2)CC1 [Example 229, trans-N4-(4-phenyl-6-isoquinolyl)cyclohexane-1,4-diamine] | 0.225 µM | 4.5 µM |  |  | 
N[C@H]1CC[C@H](NC(=O)c2ccc3cncc(-c4cc5ccccc5o4)c3c2)CC1 [Example 160, Trans-N-(4-aminocyclohexyl)-4-(benzofuran-2-yl)isoquinoline-6-carboxamide] | 0.284 µM | 12.2 µM |  |  | 

The next lines start with results.

IC50 (MNK1) | IC50 [1] | inhibition at 10 µM (MNK1; at 10 μM, read-out: Inhibition of MNK1 activity at indicated concentration) | inhibition at 1 µM (MNK1; [2]) | Structure (SMILES) | inhibition at 100 µM ([1]; MIA PaCa-2, at 100 μM, read-out: Inhibition of MiaPaCa growth at indicated concentration)
0.142 µM | 4.74 µM |  |  | Nc1ncc(-c2cccs2)c2cc(CN3CCC(N)CC3)cc(Cl)c12 [Example 287] | 
4.3 µM | 6.8 µM |  |  | Nc1ncc(-c2cc3ccccc3o2)c2cc(NCc3ccncc3)ccc12 [Example 233, 4-(Benzofuran-2-yl)-N6-(4-pyridylmethyl)isoquinoline-1,6-diamine] | 
0.353 µM | 47.6 µM |  |  | NC1CCN(C(=O)c2ccc3cncc(-c4ccc(O)cc4)c3c2)CC1 [Example 28, (4-Amino-1-piperidyl)-[4-(4-hydroxyphenyl)-6-isoquinolyl]methanone] | 
0.027 µM | 1.64 µM |  |  | Nc1ncc(-c2ccco2)c2cc(CN3CCC(N)CC3)cc(Cl)c12 [Example 286] | 
0.258 µM | 10.8 µM |  |  | NC1CCN(Cc2ccc3cncc(-c4ccc(Cl)cc4)c3c2)CC1 [Example 9] | 
0.536 µM | 5.66 µM |  |  | NC1CCN(Cc2cc3c(-c4cc5ccccc5o4)cncc3c(Cl)c2Cl)CC1 [Example 280, 1-[[4-(Benzofuran-2-yl)-7,8-dichloro-6-isoquinolyl]methyl]piperidin-4-amine] | 
 | 54.3 µM |  | 40% | Oc1ccc(-c2cncc3ccc(CN4CCOCC4)cc23)cc1 [Example 26] | 
0.683 µM | 18.7 µM |  |  | Cc1cc(NC(=O)Nc2ccc(-c3cncc4ccc(CN5CCC(N)CC5)cc34)cc2)on1 [Example 120, 1-[4-[6-[(4-Amino-1-piperidyl)methyl]-4-isoquinolyl]phenyl]-3-(3-methylisoxazol-5-yl)urea] | 
 | 7.89 µM |  | 35% | NCc1cccc(-c2cncc3ccc(CN4CCC(N)CC4)cc23)c1 [Example 184] | 
0.371 µM | 10.4 µM |  |  | N[C@H]1CC[C@H](C(=O)Nc2ccc3cncc(-c4cc5ccccc5o4)c3c2)CC1 [Example 156, trans-4-Amino-N-[4-(benzofuran-2-yl)-6-isoquinolyl]cyclohexanecarboxamide] | 
0.473 µM | 3.3 µM |  |  | Nc1ncc(-c2ccc(Cl)cc2)c2cc(CN3CCC(N)CC3)ccc12 [Example 215] | 
0.213 µM | 10.4 µM |  |  | NC1CCN(Cc2cc(Cl)c3cncc(-c4ccccc4)c3c2)CC1 [Example 241] | 
4.68 µM | 10.9 µM |  |  | Nc1cccc(Nc2ccc3cncc(-c4cc5ccccc5o4)c3c2)c1 [Example 135] | 
3.7 µM | 29 µM |  |  | NC1CCN(Cc2ccc3cncc(-c4ccc5ccccc5n4)c3c2)CC1 [Example 176, 1-[[4-(2-Quinolyl)-6-isoquinolyl]methyl]piperidin-4-amine] | 

Reference: patent US20200031811A1, “SUBSTITUTED MONO- AND POLYAZANAPHTHALENE DERIVATIVES AND THEIR USE” (Basilea Pharmaceutica International AG, priority 2015, published 2020)
